Results as given in the supplement of paper PMC10920090.

What was measured:
[1] = system: MDA-MB-231; assay: drug sensitivity score (DSS), cytotoxicity CellTox Green; higher = more cytotoxic; extreme values may be limits of the assay; settings: 72 h
[2] = system: MDA-MB-231; assay: drug sensitivity score (DSS), cell viability CellTiter-Glo; higher = more sensitive; extreme values may be limits of the assay; settings: 72 h
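Throughout, for drug sensitivity score (DSS), cytotoxicity CellTox Green: DSS summarises each dose–response curve by combining IC50, EC50, maximal inhibition and efficacy across drug concentrations.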

Structure (SMILES) | drug sensitivity score ([1]; shRNA: shPPFIA1_1) | drug sensitivity score ([1]; shRNA: shScramble) | drug sensitivity score ([2]; shRNA: shPPFIA1_1) | drug sensitivity score ([2]; shRNA: shScramble)
Cc1cc(OCc2nnc(SC3CCCC3)n2-c2cccnc2)ccc1-c1ccc(S(C)(=O)=O)cc1 [NMS-873] | 7.6 DSS | 7.4 DSS | 6.8 DSS | 14.7 DSS
CCN(CC)CCCC(C)Nc1ccnc2cc(Cl)ccc12 (centres undefined) [Chloroquine] | 5.2 DSS | 7.2 DSS | 8.7 DSS | 9.4 DSS
Oc1ccc2c(c1)CC[C@H](c1ccccc1)[C@@H]2c1ccc(OCCN2CCCC2)cc1 [Lasofoxifene] | 0 DSS | 0 DSS | 0 DSS | 0.4 DSS
Cn1c(CCCC(=O)O)nc2cc(N(CCCl)CCCl)ccc21 [Bendamustine] | 0 DSS | 0 DSS | 0 DSS | 0 DSS
CC1=C(/C=C/C(C)=C/C=C/C(C)=C/C(=O)O)C(C)(C)CCC1 [Tretinoin] | 0 DSS | 0 DSS | 0 DSS | 0 DSS
COc1cc2c(Nc3ccc(Cl)c(Cl)c3F)ncnc2cc1OC[C@@H]1C[C@@H]2CN(C)C[C@@H]2C1 [XL-647] | 0 DSS | 0 DSS | 0 DSS | 0 DSS
CON(C)C(=O)N1N=C(c2cc(F)ccc2F)S[C@@]1(CCCN)c1ccccc1 [Filanesib] | 14.1 DSS | 9.3 DSS | 0 DSS | 8.4 DSS
CCCCC/C=C/C=C1/C(=O)C=C[C@@H]1C/C=C\CCCC(=O)O [15D-PGJ2] | 0 DSS | 0 DSS | 0 DSS | 0 DSS
FC(F)(F)c1ccc(CNc2ccc(Cc3c[nH]c4ncc(Cl)cc34)cn2)cn1 [Pexidartinib] | 0 DSS | 0 DSS | 0 DSS | 0 DSS
CC(C)Nc1cc(-c2c[nH]c(C(=O)N[C@H](CO)c3cccc(Cl)c3)c2)c(Cl)cn1 [Ulixertinib] | 0 DSS | 2.7 DSS | 0 DSS | 2.1 DSS
C1=N/C2=N/c3ccc(OCCN4CCCC4)c(c3)COC/C=C/COCc3cccc(c3)C(=C1)N2 [Pacritinib] | 1.6 DSS | 0.6 DSS | 2.4 DSS | 6.2 DSS
CCCc1cc(C)[nH]c(=O)c1CNC(=O)c1cc(-c2ccnc(N3CCN(C)CC3)c2)cc2c1cnn2C(C)C [GSK343] | 3.8 DSS | 1.9 DSS | 6 DSS | 3.1 DSS
O=C(/C=C\n1cnc(-c2cc(C(F)(F)F)cc(C(F)(F)F)c2)n1)NNc1ccccn1 [Verdinexor] | 4.4 DSS | 4.2 DSS | 0 DSS | 5.7 DSS
CNC(=O)c1ccc(-c2cnc3ncc(Cc4ccc5ncccc5c4)n3n2)cc1F [NVP-INC280] | 0 DSS | 0 DSS | 4.5 DSS | 10.5 DSS
CCN1CCN(c2ccc(Nc3cc(N(C)C(=O)Nc4c(Cl)c(OC)cc(OC)c4Cl)ncn3)cc2)CC1 [NVP-BGJ398] | 0 DSS | 0 DSS | 0 DSS | 0 DSS
CO[C@H]1C[C@@H]2CC[C@@H](C)[C@@](O)(O2)C(=O)C(=O)N2CCCC[C@H]2C(=O)O[C@H]([C@H](C)C[C@@H]2CC[C@@H](O)[C@H](OC)C2)CC(=O)[C@H](C)/C=C(\C)[C@@H](O)[C@@H](OC)C(=O)[C@H](C)C[C@H](C)/C=C/C=C/C=C/1C [Sirolimus] | 0 DSS | 0 DSS | 0 DSS | 6 DSS
C[C@@H]1CN(Cc2ccc(F)cc2)[C@@H](C)CN1C(=O)c1cc2c(C(=O)C(=O)N(C)C)cn(C)c2cc1Cl [Talmapimod] | 0 DSS | 0 DSS | 0 DSS | 0 DSS
CCc1cc2c(cc1N1CCC(N3CCOCC3)CC1)C(C)(C)c1[nH]c3cc(C#N)ccc3c1C2=O [Alectinib] | 0 DSS | 0 DSS | 0 DSS | 0.4 DSS
O=C1CCC(N2C(=O)c3ccccc3C2=O)C(=O)N1 (centres undefined) [Thalidomide] | 0 DSS | 0 DSS | 0 DSS | 0 DSS
CN(C)CCN1C(=O)c2cccc3cc(N)cc(c23)C1=O [Amonafide] | 1 DSS | 2.5 DSS | 3.5 DSS | 8.2 DSS
CC1(COc2ccc3c(c2)ncn3-c2ccc3cccc(N4CCC(N)CC4)c3n2)COC1 [Crenolanib] | 7.2 DSS | 4.6 DSS | 5.3 DSS | 9.4 DSS
N.N.[Cl][Pt][Cl] [Cisplatin] | 4 DSS | 3.5 DSS | 2 DSS | 7.6 DSS
Cc1c(NC(=O)OC[C@@H]2COCCN2)cn2ncnc(Nc3ccc4c(cnn4Cc4cccc(F)c4)c3)c12 | 0 DSS | 0 DSS | 1.2 DSS | 2.4 DSS

Structure (SMILES) | drug sensitivity score ([1]; shRNA: shPPFIA1_1) | drug sensitivity score ([1]; shRNA: shScramble) | drug sensitivity score ([2]; shRNA: shPPFIA1_1) | drug sensitivity score ([2]; shRNA: shScramble)
Cc1cc(Nc2ncc(Cl)c(Nc3ccccc3S(=O)(=O)C(C)C)n2)c(OC(C)C)cc1C1CCNCC1 [Ceritinib] | 0.9 DSS | 0 DSS | 0 DSS | 1.2 DSS
CC[C@H](NC(=O)[C@H](C)NC)C(=O)N1C[C@@H](O)C[C@H]1Cc1c(-c2[nH]c3cc(F)ccc3c2C[C@@H]2C[C@H](O)CN2C(=O)[C@H](CC)NC(=O)[C@H](C)NC)[nH]c2cc(F)ccc12 [Birinapant] | 31.3 DSS | 22.4 DSS | 20.3 DSS | 13.2 DSS
COc1cccc2c1c(O)c(C(=O)N(C)c1ccc(C(F)(F)F)cc1)c(=O)n2C [Tasquinimod] | 0 DSS | 0 DSS | 0 DSS | 3.4 DSS
Cc1csc(-c2nnc(Nc3ccc(Oc4ncccc4-c4ccnc(N)n4)cc3)c3ccccc23)c1 [AMG-900] | 0 DSS | 0 DSS | 0 DSS | 0.3 DSS
COc1cc2c(NC3CCN(C(C)C)CC3)nc(N3CCC(F)(F)CC3)nc2cc1OCCCN1CCCC1 [UNC0642] | 3 DSS | 0.5 DSS | 3.5 DSS | 3.1 DSS
O=C(NC1CCNCC1)c1n[nH]cc1NC(=O)c1c(Cl)cccc1Cl [AT7519] | 8.6 DSS | 5.3 DSS | 5.6 DSS | 12.7 DSS
Cc1nc(N)sc1-c1ccnc(Nc2ccc(N3CCOCC3)cc2)n1 [CYC-116] | 0 DSS | 0 DSS | 0.2 DSS | 4.8 DSS
CCn1c(-c2nonc2N)nc2c(C#CC(C)(C)O)ncc(OC[C@H]3CCCNC3)c21 | 0 DSS | 0 DSS | 0 DSS | 0.2 DSS
COc1cccc(OCCCN)c1-c1cc(Nc2cnc(C#N)cn2)n[nH]1 [Prexasertib] | 21 DSS | 6.9 DSS | 13.2 DSS | 29.8 DSS
C[C@@H]1C=C2C(=O)O[C@@H]3CC[C@H](C1)[C@]23O [Galiellalactone] | 2.9 DSS | 1.8 DSS | 0.2 DSS | 2.1 DSS
COc1cc2/c(=N/c3ccc(Br)cc3F)nc[nH]c2cc1OCC1CCN(C)CC1 [Vandetanib] | 0 DSS | 2 DSS | 3.6 DSS | 0 DSS
Nc1ncn([C@@H]2O[C@H](CO)[C@@H](O)[C@H]2O)c(=O)n1 [Azacitidine] | 0 DSS | 0 DSS | 0 DSS | 1.1 DSS
Cc1cc(Nc2cc(N3CCN(C)CC3)nc(Sc3ccc(NC(=O)C4CC4)cc3)n2)n[nH]1 [Tozasertib] | 1.6 DSS | 0.3 DSS | 0 DSS | 3 DSS
CC(C)C[C@H](NC(=O)[C@H](Cc1ccccc1)NC(=O)c1cnccn1)B(O)O [Bortezomib] | 26.8 DSS | 24.3 DSS | 21.3 DSS | 23.1 DSS
Cc1cccc(-c2nn3c(c2-c2ccnc4ccc(C(N)=O)cc24)CCC3)n1 [Galunisertib] | 0 DSS | 0 DSS | 0 DSS | 0 DSS
C[C@]1(c2nc3c(C(N)=O)cccc3[nH]2)CCCN1 [Veliparib] | 0 DSS | 0 DSS | 0 DSS | 0 DSS
CC(C)[C@H]1C(=O)N[C@@H](CCCNC(=N)N)C(=O)NCC(=O)N[C@@H](CC(=O)O)C(=O)N[C@H](Cc2ccccc2)C(=O)N1C [Cilengitide] | 0 DSS | 0 DSS | 0 DSS | 0 DSS
CC(C)n1nc(-c2ccc3oc(N)nc3c2)c2c(N)ncnc21 [MLN-0128] | 0 DSS | 0 DSS | 0.2 DSS | 5 DSS
CNc1nc(Nc2cn(C(C)(C)C#N)nc2C)ncc1C(F)(F)F [GNE-0877] | 0 DSS | 0 DSS | 0 DSS | 0 DSS
O=C(O)c1ccc(Nc2ncc3c(n2)-c2ccc(Cl)cc2C(c2c(F)cccc2F)=NC3)cc1 [MLN-8054] | 0 DSS | 0 DSS | 0.1 DSS | 2.2 DSS
CC(C)[C@H](C(=O)Nc1ccc(C(=O)NO)cc1)c1ccccc1 [AR-42] | 12.6 DSS | 7.5 DSS | 9.3 DSS | 9.5 DSS
Cc1c(CN2CCN(C(=O)[C@H](C)O)CC2)sc2c(N3CCOCC3)nc(-c3cnc(N)nc3)nc12 [Apitolisib] | 0 DSS | 0 DSS | 0 DSS | 5.6 DSS
CN(C[C@@H]1COCCO1)S(=O)(=O)Nc1ccc2ccc3ncc(-c4cnn(C)c4)cc3c(=O)c2c1 [MK-2461] | 0 DSS | 0 DSS | 0 DSS | 3.6 DSS
